US20160355530A1, “HEPATITIS C INHIBITORS AND USES THEREOF” (AbbVie Inc., priority 2010, published 2016)
Like-named read-outs stand apart in the source and are kept apart here.

Experiments:
[1] = test system: HCV 1b-BB7 subgenomic replicon; assay: microbe, parasite or virus in culture; format: cell-based, HCV genotype 1b; settings: Hepatitis C virus, stable replicon
[2] = test system: chimeric replicon with genotype 3a NS5B; assay: microbe, parasite or virus in culture; format: cell-based, HCV genotype 3a; settings: Hepatitis C virus, read-out: 3a chimera 5% FBS EC50
[3] = target: T1, HCV NS5B polymerase 1b BK strain (Hepatitis C virus genotype 1b, UniProt P26663); assay: HCV NS5B polymerase enzymatic inhibition assay, strain 1b BK; format: biochemical; settings: enzyme, strain 1b BK; read-out: HCV Polymerase Strain 1b BK IC50
T1 construct: six-histidine tag; made in house; host or cells: E. coli
T1 sequence (P26663 2420-2989): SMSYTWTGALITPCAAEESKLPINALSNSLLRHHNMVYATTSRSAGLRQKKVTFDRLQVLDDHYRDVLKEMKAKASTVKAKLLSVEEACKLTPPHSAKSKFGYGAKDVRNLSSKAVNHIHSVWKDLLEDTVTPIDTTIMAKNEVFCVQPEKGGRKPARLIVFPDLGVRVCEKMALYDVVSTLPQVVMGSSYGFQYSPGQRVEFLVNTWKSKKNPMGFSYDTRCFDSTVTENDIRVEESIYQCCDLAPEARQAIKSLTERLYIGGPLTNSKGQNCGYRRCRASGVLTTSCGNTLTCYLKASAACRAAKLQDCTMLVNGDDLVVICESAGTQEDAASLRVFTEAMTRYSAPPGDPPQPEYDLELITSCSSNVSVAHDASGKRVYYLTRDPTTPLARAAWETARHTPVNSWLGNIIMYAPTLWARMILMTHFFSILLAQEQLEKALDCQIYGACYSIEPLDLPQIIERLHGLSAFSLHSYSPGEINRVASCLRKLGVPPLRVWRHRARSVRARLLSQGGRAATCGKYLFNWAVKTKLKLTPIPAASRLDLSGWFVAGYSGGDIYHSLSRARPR
In short: (§1)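 E. coli-expressed NS5B (residues 1-570, His-tagged) transcribed a 2.1 kb HCV 1b negative-strand 3′-end RNA template (5 nM) with 20 μM CTP, 20 μM ATP and 0.284 μM [3H]UTP for 3 h at 30° C. Spermine-precipitated RNA was filter-captured and counted by scintillation; IC50 from nonlinear regression.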

[4] = test system: HCV 1a-H77 transient subgenomic replicon in Huh-7 derived cell line; assay: microbe, parasite or virus in culture; format: cell-based, HCV genotype 1a; settings: Hepatitis C virus, Huh-7; transient replicon, 5% FBS; read-out: Transient Replicon 1a H77 5% FBS EC50
Experimental: (§2) In addition to the stable replicon inhibition assays, transient replicon assays were performed. Transient replicons are identical to the 1a-H77 and 1a-H77-C316Y constructs, except they lack the Neo gene, making it impossible to establish stable cell lines. A T7 Megascript RNA synthesis kit (Ambion) was used to transcribe the HCV subgenomic RNA. The HCV RNA was then precipitated with lithium chloride according to manufacturer's instructions. The HCV subgenomic replicon RNA was transfected via electroporation into a Huh-7 derived cell line as described (Middleton T, et al. J. Virological Methods 2007; 145(2): 137-145). Transfected cells were diluted and plated in 96 well plates at 5×10^3 cells per well in DMEM. Four hours post-transfection, the wells from one plate were harvested for luciferase measurement. This plate provides a measure of the amount of translatable input RNA, and therefore transfection efficiency. To the wells of the remaining plates, a 3-fold dilution series of test compounds was added in DMSO (0.5% DMSO final concentration), and plates were incubated at 37° C., 5% CO2 in a humidified incubator for 4 days. After this period, the media was removed and the plates were washed with 100 μL phosphate-buffered saline per well. For the luciferase assay, 30 μL of Passive Lysis buffer (Promega) was added to each well, and then the plates were incubated for 15 minutes with rocking to lyse the cells. Luciferin solution (100 μL, Promega) was added to each well, and luciferase activity was measured with a Victor II luminometer (Perkin-Elmer). The EC50 values were calculated using GraphPad Prism 4 software.

[5] = test system: HCV 1a-H77-C316Y transient subgenomic replicon in Huh-7 derived cell line; assay: microbe, parasite or virus in culture; format: cell-based, HCV genotype 1a; settings: for EC50: Hepatitis C virus, Huh-7, read-out: Transient Replicon 1a H77-C316Y 5% FBS EC50; for Transient Replicon Fold Resistance C316Y/1a: ratio of transient replicon EC50s, C316Y / 1a H77
Experimental: as §2

[6] = test system: HCV 1a-H77 subgenomic replicon; assay: microbe, parasite or virus in culture; format: cell-based, HCV genotype 1a; settings: Hepatitis C virus, stable replicon
[7] = test system: chimeric replicon with 2a-J6CF-derived NS5B; assay: microbe, parasite or virus in culture; format: cell-based, HCV genotype 2a; settings: Hepatitis C virus, read-out: 2a chimera 5% FBS EC50
[8] = test system: chimeric replicon with genotype 2b NS5B; assay: microbe, parasite or virus in culture; format: cell-based, HCV genotype 2b; settings: Hepatitis C virus, read-out: 2b chimera 5% FBS EC50
[9] = target: T2, HCV NS5B polymerase 1a-H77-C316Y (Hepatitis C virus genotype 1a, UniProt P27958, C2736Y); assay: biochemical; design: species or system HCV genotype 1a
T2 construct: six-histidine tag; made in house; host or cells: E. coli
T2 sequence (P27958 2421-2990 C2736Y): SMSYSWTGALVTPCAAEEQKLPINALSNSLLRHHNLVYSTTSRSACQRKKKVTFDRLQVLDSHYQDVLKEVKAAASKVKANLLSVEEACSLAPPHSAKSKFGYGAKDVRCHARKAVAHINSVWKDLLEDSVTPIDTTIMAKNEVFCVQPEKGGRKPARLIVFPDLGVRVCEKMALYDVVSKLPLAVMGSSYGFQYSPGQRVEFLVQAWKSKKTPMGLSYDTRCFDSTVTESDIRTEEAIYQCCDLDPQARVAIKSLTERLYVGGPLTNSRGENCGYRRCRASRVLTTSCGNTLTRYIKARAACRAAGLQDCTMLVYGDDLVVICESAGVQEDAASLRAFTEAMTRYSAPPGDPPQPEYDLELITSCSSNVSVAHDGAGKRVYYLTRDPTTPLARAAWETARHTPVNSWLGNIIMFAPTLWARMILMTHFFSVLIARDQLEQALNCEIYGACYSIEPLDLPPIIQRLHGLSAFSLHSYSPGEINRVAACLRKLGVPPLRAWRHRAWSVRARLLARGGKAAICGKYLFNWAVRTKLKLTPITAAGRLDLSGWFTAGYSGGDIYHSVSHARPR
In short: as §1

[10] = target: T3, HCV NS5B polymerase 1a-H77 (Hepatitis C virus genotype 1a, UniProt P27958); assay: biochemical; design: species or system HCV genotype 1a
T3 construct: six-histidine tag; made in house; host or cells: E. coli
T3 sequence (P27958 2421-2990): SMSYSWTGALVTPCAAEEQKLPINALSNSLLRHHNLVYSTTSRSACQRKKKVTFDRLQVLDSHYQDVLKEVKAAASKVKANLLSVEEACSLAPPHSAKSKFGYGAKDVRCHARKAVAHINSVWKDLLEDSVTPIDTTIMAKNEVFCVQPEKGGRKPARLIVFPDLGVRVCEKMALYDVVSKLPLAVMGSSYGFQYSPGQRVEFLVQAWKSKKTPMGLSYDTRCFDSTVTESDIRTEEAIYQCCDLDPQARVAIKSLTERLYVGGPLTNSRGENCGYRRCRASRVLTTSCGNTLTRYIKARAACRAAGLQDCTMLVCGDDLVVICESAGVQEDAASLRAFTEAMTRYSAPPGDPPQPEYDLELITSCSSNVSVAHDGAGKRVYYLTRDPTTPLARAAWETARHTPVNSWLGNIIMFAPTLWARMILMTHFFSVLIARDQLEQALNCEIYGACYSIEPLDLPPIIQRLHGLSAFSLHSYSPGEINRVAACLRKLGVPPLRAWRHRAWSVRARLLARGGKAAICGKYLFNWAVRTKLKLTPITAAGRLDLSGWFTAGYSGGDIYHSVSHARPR
In short: as §1

[11] = test system: HCV NS5B polymerase 1a-H77-C316Y; assay: biochemical; design: species or system HCV genotype 1a; settings: ratio of enzyme IC50s, 1a H77-C316Y / 1a H77
In short: as §1

[12] = test system: chimeric replicon with genotype 4a NS5B; assay: microbe, parasite or virus in culture; format: cell-based, HCV genotype 4a; settings: Hepatitis C virus, read-out: 4a chimera 5% FBS EC50
[13] = strain 1b BB7, 5% FBS + 40% human plasma, read-out: 1b BB7 5% FBS + 40% Human Plasma EC50
[14] = strain 1b BB7, 5% FBS, no human plasma, read-out: 1b BB7 5% FBS EC50
[15] = strain 1b BB7, 5% FBS, read-out: 1b BB7 5% FBS EC50
[16] = 5% FBS, absence of human plasma, read-out: Stable Replicon 1a H77 5% FBS EC50
[17] = strain 1a H77, 5% FBS + 40% human plasma, read-out: 1a H77 5% FBS + 40% Human Plasma EC50
[18] = strain 1a H77, 5% FBS, no human plasma, read-out: 1a H77 5% FBS EC50
[19] = strain 1a H77, 5% FBS, read-out: 1a H77 5% FBS EC50
[20] = enzyme, strain 1a H77, read-out: HCV Polymerase Strain 1a H77 IC50

Structure (SMILES)	EC50 [1, 13]	EC50 [1, 14]	EC50 [1, 15]	EC50 [2]	IC50 [3]	EC50 [4]	EC50 [5]	Transient Replicon Fold Resistance C316Y/1a [5]	EC50 [6, 16]	EC50 [6, 17]	EC50 [6, 18]	EC50 [6, 19]	EC50 [7]	EC50 [8]	IC50 [9]	IC50 [10, 20]	C316Y/1a Fold Resistance [11]	EC50 [12]	IC50 [10]
CC(O)CCCN(c1cc2oc(-c3ccc(F)cc3)c(-c3ncc[nH]3)c2cc1C1CC1)S(C)(=O)=O (stereo not drawn) [Example 100, N-[5-cyclopropyl-2-(4-fluorophenyl)-3-(1H-imidazol-2-yl)-1-benzofuran-6-yl]-N-(4-hydroxypentyl)methanesulfonamide]	0.057 µM	0.0034 µM	0.0034 µM	0.0031 µM	0.008 µM	0.0042 µM	0.0891 µM	21 fold	0.006 µM	0.088 µM	0.006 µM	0.006 µM	0.0198 µM	0.0163 µM	0.053 µM	0.0035 µM	15 fold	0.0216 µM	
CC(C)(O)C(O)CCN(c1cc2oc(-c3ccc(F)cc3)c(C3=NOCN3)c2cc1C1CC1)S(C)(=O)=O (stereo not drawn) [Example 146, N-[5-cyclopropyl-3-(4,5-dihydro-1,2,4-oxadiazol-3-yl)-2-(4-fluorophenyl)-1-benzofuran-6-yl]-N-(3,4-dihydroxy-4-methylpentyl)methanesulfonamide]	2.71 µM	0.0179 µM	0.0179 µM	0.017 µM	0.025 µM	0.0112 µM	0.237 µM	21 fold	0.0126 µM	1.66 µM	0.0126 µM	0.0126 µM	0.179 µM	0.169 µM	0.045 µM	0.0049 µM	9 fold	0.277 µM	
CS(=O)(=O)N(CCCS(N)(=O)=O)c1cc2oc(-c3ccc(F)cc3)c(C3=NOCN3)c2cc1C1CC1 [Example 15, 3-{[5-cyclopropyl-3-(4,5-dihydro-1,2,4-oxadiazol-3-yl)-2-(4-fluorophenyl)-1-benzofuran-6-yl](methylsulfonyl)amino}propane-1-sulfonamide]	0.818 µM	0.01 µM	0.01 µM	0.012 µM	0.011 µM	0.0082 µM	0.166 µM	20 fold	0.0065 µM	1.77 µM	0.0065 µM	0.0065 µM	0.128 µM	0.105 µM	0.031 µM		10 fold	0.142 µM	0.003 µM
CS(=O)(=O)CCCCN(c1cc2oc(-c3ccc(F)cc3)c(-c3ncc[nH]3)c2cc1C1CC1)S(C)(=O)=O [Example 6, N-[5-cyclopropyl-2-(4-fluorophenyl)-3-(1H-imidazol-2-yl)-1-benzofuran-6-yl]-N-[4-(methylsulfonyl)butyl]methanesulfonamide]	0.0362 µM	0.0039 µM	0.0039 µM	0.0033 µM	0.016 µM	0.0032 µM	0.105 µM	33 fold	0.0083 µM	0.0613 µM	0.0083 µM	0.00832 µM	0.026 µM	0.0188 µM	0.069 µM	0.0052 µM	13 fold	0.0161 µM	
CS(=O)(=O)N(CCCN1CCS(=O)(=O)CC1)c1cc2oc(-c3ccc(F)cc3)c(C3=NOCCN3)c2cc1C1CC1 [Example 114, N-[5-cyclopropyl-3-(5,6-dihydro-4H-1,2,4-oxadiazin-3-yl)-2-(4-fluorophenyl)-1-benzofuran-6-yl]-N-[3-(1,1-dioxidothiomorpholin-4-yl)propyl]methanesulfonamide]	0.377 µM	0.033 µM	0.033 µM	0.0562 µM	0.043 µM	0.0218 µM	0.238 µM	11 fold	0.0271 µM	0.406 µM	0.0271 µM	0.0271 µM	0.299 µM	0.331 µM	0.07 µM	0.007 µM	10 fold	0.307 µM	
CS(=O)(=O)N(CCCS(=O)(=O)c1ccccc1)c1cc2oc(-c3ccc(F)cc3)c(-c3ncc[nH]3)c2cc1C1CC1 [Example 90, N-[5-cyclopropyl-2-(4-fluorophenyl)-3-(1H-imidazol-2-yl)-1-benzofuran-6-yl]-N-[3-(phenylsulfonyl)propyl]methanesulfonamide]	0.048 µM	0.006 µM	0.006 µM	0.0128 µM	0.01 µM	0.0027 µM	0.0658 µM	24 fold	0.0102 µM	0.093 µM	0.0102 µM	0.0102 µM	0.0475 µM	0.068 µM	0.042 µM	0.0035 µM	12 fold	0.0275 µM	
CS(=O)(=O)N(CCCS(N)(=O)=O)c1cc2oc(-c3ccc(F)cc3)c(C3=NOCCN3)c2cc1C1CC1 [Example 124, 3-{[5-cyclopropyl-3-(5,6-dihydro-4H-1,2,4-oxadiazin-3-yl)-2-(4-fluorophenyl)-1-benzofuran-6-yl](methylsulfonyl)amino}propane-1-sulfonamide]	0.984 µM	0.044 µM	0.044 µM	0.139 µM	0.029 µM	0.0334 µM	0.276 µM	8 fold	0.0443 µM	0.501 µM	0.0443 µM	0.0443 µM	1 µM	1 µM	0.037 µM	0.0045 µM	8 fold	0.962 µM	
CS(=O)(=O)CCN(c1cc2oc(-c3ccc(F)cc3)c(-c3ncc[nH]3)c2cc1C1CC1)S(C)(=O)=O [Example 87, N-[5-cyclopropyl-2-(4-fluorophenyl)-3-(1H-imidazol-2-yl)-1-benzofuran-6-yl]-N-[2-(methylsulfonyl)ethyl]methanesulfonamide]	0.057 µM	0.0049 µM	0.0049 µM	0.0032 µM	0.023 µM	0.0061 µM	0.155 µM	25 fold	0.0076 µM	0.065 µM	0.0076 µM	0.0076 µM	0.0645 µM	0.0849 µM	0.156 µM	0.006 µM	26 fold	0.0484 µM	
